Measurements taken from the supplement of paper PMC10307832.

Experiments:
Assay in all cases: relative viability (nuclei count vs DMSO), 5 days (fraction); higher = more cells survive
VX-11e + Bortezomib = compound: CC1=CN=C(N=C1C2=CNC(=C2)C(=O)N[C@H](CO)C3=CC(=CC=C3)Cl)NC4=C(C=C(C=C4)F)Cl [VX-11e] + CC(C)C[C@H](NC(=O)[C@H](Cc1ccccc1)NC(=O)c1cnccn1)B(O)O [Bortezomib] (partner 0.002 µM)
In short: (§1)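 The day after seeding in 1536-well plates, lung cancer cell lines were treated by pin tool with a single drug, or with a fixed anchor-drug dose together with five library-drug doses (not always all listed) in √10 steps. After 5 days, a combined fix-and-stain solution (final 0.05% Triton X-100, 1% formaldehyde, 1 ug/ml Hoechst) was added. Nuclei counted on 4× images gave relative viability as treated counts over vehicle counts, reported as the median of duplicate plates.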

VX-11e + Tozasertib = compound: CC1=CN=C(N=C1C2=CNC(=C2)C(=O)N[C@H](CO)C3=CC(=CC=C3)Cl)NC4=C(C=C(C=C4)F)Cl [VX-11e] + Cc1cc(Nc2cc(N3CCN(C)CC3)nc(Sc3ccc(NC(=O)C4CC4)cc3)n2)n[nH]1 [Tozasertib] (partner 0.1 µM)
In short: as §1

VX-11e + AZD7762 = compound: CC1=CN=C(N=C1C2=CNC(=C2)C(=O)N[C@H](CO)C3=CC(=CC=C3)Cl)NC4=C(C=C(C=C4)F)Cl [VX-11e] + NC(=O)Nc1cc(-c2cccc(F)c2)sc1C(=O)N[C@H]1CCCNC1 [AZD7762] (partner 0.2 µM)
In short: as §1

VX-11e + Decitabine = compound: CC1=CN=C(N=C1C2=CNC(=C2)C(=O)N[C@H](CO)C3=CC(=CC=C3)Cl)NC4=C(C=C(C=C4)F)Cl [VX-11e] + Nc1ncn([C@H]2C[C@H](O)[C@@H](CO)O2)c(=O)n1 [Decitabine] (partner 2 µM)
In short: as §1

NCI-H1666
relative viability (VX-11e + Bortezomib; first compound 0.04 µM): 0.877
relative viability (VX-11e + Bortezomib; first compound 0.1265 µM): 0.862
relative viability (VX-11e + Bortezomib; first compound 0.4 µM): 0.627
relative viability (VX-11e + Bortezomib; first compound 1.265 µM): 0.678
relative viability (VX-11e + Bortezomib; first compound 4 µM): 0.505
relative viability (VX-11e + Tozasertib; first compound 0.04 µM): 0.561
relative viability (VX-11e + Tozasertib; first compound 0.1265 µM): 0.584
relative viability (VX-11e + Tozasertib; first compound 0.4 µM): 0.49
relative viability (VX-11e + Tozasertib; first compound 1.265 µM): 0.52
relative viability (VX-11e + Tozasertib; first compound 4 µM): 0.388
relative viability (VX-11e + AZD7762; first compound 0.04 µM): 0.803
relative viability (VX-11e + AZD7762; first compound 0.1265 µM): 0.832
relative viability (VX-11e + AZD7762; first compound 0.4 µM): 0.715
relative viability (VX-11e + AZD7762; first compound 1.265 µM): 0.732
relative viability (VX-11e + AZD7762; first compound 4 µM): 0.699
relative viability (VX-11e + Decitabine; first compound 0.04 µM): 0.636
relative viability (VX-11e + Decitabine; first compound 0.1265 µM): 0.769
relative viability (VX-11e + Decitabine; first compound 0.4 µM): 0.541
relative viability (VX-11e + Decitabine; first compound 1.265 µM): 0.671
relative viability (VX-11e + Decitabine; first compound 4 µM): 0.598

NCI-H23
relative viability (VX-11e + Bortezomib; first compound 0.04 µM): 0.911
relative viability (VX-11e + Bortezomib; first compound 0.1265 µM): 0.81
relative viability (VX-11e + Bortezomib; first compound 0.4 µM): 0.25
relative viability (VX-11e + Bortezomib; first compound 1.265 µM): 0.935
relative viability (VX-11e + Bortezomib; first compound 4 µM): 0.367
relative viability (VX-11e + Tozasertib; first compound 0.04 µM): 0.321
relative viability (VX-11e + Tozasertib; first compound 0.1265 µM): 0.322
relative viability (VX-11e + Tozasertib; first compound 1.265 µM): 0.216
relative viability (VX-11e + Tozasertib; first compound 4 µM): 0.168
relative viability (VX-11e + AZD7762; first compound 0.04 µM): 0.208
relative viability (VX-11e + AZD7762; first compound 0.1265 µM): 0.231
relative viability (VX-11e + AZD7762; first compound 0.4 µM): 0.167
relative viability (VX-11e + AZD7762; first compound 1.265 µM): 0.176
relative viability (VX-11e + AZD7762; first compound 4 µM): 0.119
relative viability (VX-11e + Decitabine; first compound 0.04 µM): 0.279
relative viability (VX-11e + Decitabine; first compound 0.1265 µM): 0.312
relative viability (VX-11e + Decitabine; first compound 0.4 µM): 0.306
relative viability (VX-11e + Decitabine; first compound 1.265 µM): 0.284
relative viability (VX-11e + Decitabine; first compound 4 µM): 0.22
